# Where “and” joins values, the source holds several entries; their conditions need not be identical. Identical values can stand only once. Numbered stars: 1 amine (or outer) side, 2 acyl side, 3 side chain; on linkers, the order of the positions; unused ones are H or OH. Square brackets hold non-standard residues; d marks the D form. Side chains are listed from the residue outwards. Peptide text beside a SMILES is read from it. * marks the point of attachment. C18 diacid = O=C(O)CCCCCCCCCCCCCCCCC(=O)*; γGlu = O=C(O)[C@H](CCC(=O)[*:2])N[*:1]; 1Nal = N[C@@H](Cc1cccc2ccccc12)C(=O)O; AEEA = NCCOCCOCC(=O)O; Aib = CC(C)(N)C(=O)O
# Tests used:
# human GLP-1R [1] = biological target: T1, human GLP-1R (Homo sapiens, UniProt P43220); format: binding
# T1 construct: expressed in transfected cells; host or cells: 293HEK, Hygromycin-selected; crude plasma membranes
# T1 sequence (P43220 24-463): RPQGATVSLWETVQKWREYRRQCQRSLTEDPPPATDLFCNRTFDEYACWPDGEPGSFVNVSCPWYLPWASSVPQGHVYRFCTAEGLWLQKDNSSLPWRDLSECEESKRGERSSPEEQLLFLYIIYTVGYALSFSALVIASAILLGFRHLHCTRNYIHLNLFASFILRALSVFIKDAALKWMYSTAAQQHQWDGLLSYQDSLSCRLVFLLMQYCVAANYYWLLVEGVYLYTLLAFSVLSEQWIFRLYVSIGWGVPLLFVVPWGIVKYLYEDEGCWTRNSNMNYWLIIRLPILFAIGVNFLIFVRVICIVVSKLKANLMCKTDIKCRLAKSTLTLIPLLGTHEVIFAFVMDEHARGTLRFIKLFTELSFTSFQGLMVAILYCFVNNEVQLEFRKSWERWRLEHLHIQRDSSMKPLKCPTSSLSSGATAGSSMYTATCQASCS
# human GLP-1R [2] = biological target: T1, human GLP-1R; assay: Functional hGLP-1R cAMP assay in HEK-293 clonal cells; format: cell-based; details: HEK293; percent of maximal response of hGLP-1(7-36)NH2
# mouse islets = assay: Mouse islet insulin secretion; format: cell-based; details: read-out: Mouse islet insulin secretion Mean ED50
# Protocol: To assess action of compounds of the present invention in a system representing physiological GLP-1R and GIP-R expression levels insulin secretion, compounds are tested for effects on insulin secretion from wild-type rodent islets.
# After common bile duct cannulation in male C57B1/6 mice (22-26 g) or male Sprague-Dawley rats (approx. 250 g), the pancreas is distended with Hank's buffer (3 ml for mice or 10 ml for rats, containing 2% BSA and 0.75 mg/ml Clzyme collagenase (VitaCyte). Subsequently, tissues are digested in Hank's buffer at 37° C. for 11-13 minutes (mice) or 14-16 minutes for rat pancreata. Purified islets (Histopaque-1100 gradient [Sigma-Aldrich], […] at 750× gravity) are cultured overnight in RPMI-1640 medium (Invitrogen) containing 10% FBS, 100 U/ml penicillin and 100 μg/ml streptomycin, and preconditioned by starvation in Earle's Balanced Salt Solution (EBSS) supplemented with 0.1% BSA and 2.8 mM glucose. Subsequently, islets are incubated in EBSS (Invitrogen) supplemented with 0.1% BSA, 2.8-11.2 mM glucose and increasing levels of compound (6 batches of 4 islets/condition). GLP-1(7-36)amide (30 nM) is used as a positive control. Insulin is measured over 90 minutes in supernatant using the MSD Insulin Assay (Meso Scale, Gaithersburg, Md.).
# [3] = Pharmacokinetics in cynomolgus monkeys; format: in vivo; details: cynomolgus monkey, plasma, single SC 0.2 mg/kg, male monkeys, n = 2
# In short: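 Single 0.2 mg/kg dose, intravenous or subcutaneous, in 20 mM citrate buffer pH 7.0; blood sampled from 2 to 312 hours post-dose. Plasma extracted with N-butanol, reconstituted in 30% acetonitrile/0.1% formic acid and quantified by LC/MS on a C5 column with Q-Exactive detection.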
# [4] = Rat in vivo insulin secretion following intravenous glucose (IVGTT); details: s.c. 16 hour prior to glucose
# In short: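 Male Wistar rats dosed s.c. with vehicle or 0.1–10 nmol/kg 16 h before glucose, then fasted and anesthetized with pentobarbital i.p. (65 mg/kg). Glucose ([…]) given after a time-zero bleed; plasma sampled at 2, 4, 6, 10, 20, 30 min. Glucose measured by analyzer, insulin by MSD immunoassay.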
# [5] = Weight loss, body composition and hepatic steatosis in DIO mice; format: in vivo, mouse; details: for Blood Glucose: Day 15
# In short: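 C57/BL6 DIO mice, individually housed at 24 °C, 12 h light/dark, food and water ad libitum; daily body weight and food intake, weight change versus pre-dose value of the same animal. Day 15: tail-vein glucose, then liver triglycerides and plasma cholesterol; ANOVA with Dunnett's test, ED50 for weight loss by non-linear fit.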
# Human GCGR = Human GCGR (Homo sapiens, UniProt P47871); assay: Functional hGCGR cAMP assay in HEK-293 clonal cells
# Human GCGR, sequence (P47871 26-477): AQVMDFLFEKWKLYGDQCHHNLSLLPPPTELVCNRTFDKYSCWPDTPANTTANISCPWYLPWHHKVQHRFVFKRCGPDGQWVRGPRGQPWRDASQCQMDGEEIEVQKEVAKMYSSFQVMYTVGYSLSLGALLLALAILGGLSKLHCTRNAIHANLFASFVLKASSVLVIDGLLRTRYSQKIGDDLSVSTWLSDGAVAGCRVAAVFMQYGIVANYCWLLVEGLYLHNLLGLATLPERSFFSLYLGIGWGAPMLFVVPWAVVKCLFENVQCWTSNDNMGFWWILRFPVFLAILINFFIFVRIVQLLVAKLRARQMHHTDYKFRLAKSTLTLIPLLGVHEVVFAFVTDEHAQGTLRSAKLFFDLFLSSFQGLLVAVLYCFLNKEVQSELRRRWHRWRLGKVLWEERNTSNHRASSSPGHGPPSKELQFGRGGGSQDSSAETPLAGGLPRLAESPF
# human GIP-R = biological target: T2, human GIP-R (Homo sapiens, UniProt P48546); assay: Functional hGIP-R cAMP assay in HEK-293 clonal cells; details: HEK293, read-out: Human GIP-R Emax
# T2 sequence (P48546 22-466): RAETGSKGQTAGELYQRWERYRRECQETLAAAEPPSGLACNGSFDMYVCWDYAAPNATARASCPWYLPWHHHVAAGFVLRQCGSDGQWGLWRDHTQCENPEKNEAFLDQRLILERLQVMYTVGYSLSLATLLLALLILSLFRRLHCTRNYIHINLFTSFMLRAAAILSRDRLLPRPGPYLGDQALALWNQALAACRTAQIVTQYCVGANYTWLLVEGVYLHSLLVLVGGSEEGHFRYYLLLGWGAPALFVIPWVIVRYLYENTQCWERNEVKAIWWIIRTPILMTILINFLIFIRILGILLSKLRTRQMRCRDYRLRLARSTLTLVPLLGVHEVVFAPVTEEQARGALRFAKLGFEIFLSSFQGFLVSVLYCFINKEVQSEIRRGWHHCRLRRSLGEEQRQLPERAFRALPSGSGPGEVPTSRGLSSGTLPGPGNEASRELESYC
# Protocol: After an incubation of 60 minutes at room temperature, the resulting increase in intracellular cAMP is quantitatively determined using the CisBio cAMP Dynamic 2 HTRF Assay Kit (Bedford, Mass.). Briefly, cAMP levels within the cell are detected by adding the cAMP-d2 conjugate in cell lysis buffer (20 μl) followed by the antibody anti-cAMP-Eu^3+-Cryptate, also in cell lysis buffer (20 μl). The resulting competitive assay is incubated for at least 60 minutes at room temperature, then detected using a PerkinElmer Envision® instrument with excitation at 320 nm and emission at 665 nm and 620 nm Envision units (emission at 665 nm/620 nm*10,000) are inversely proportional to the amount of cAMP present and are converted to nM cAMP per well using a cAMP standard curve. […] A relative EC50 value and percent top (Emax) is derived by non-linear regression analysis using the percent maximal response versus the concentration of the compound of the present invention, fitted to a four-parameter logistic equation.
smiles,measurement,setting,value
CC[C@H](C)[C@H](NC(=O)[C@H](CC(C)C)NC(=O)[C@H](Cc1c[nH]c2ccccc12)NC(=O)[C@H](CCC(N)=O)NC(=O)[C@@H](NC(=O)[C@H](Cc1cccc2ccccc12)NC(=O)[C@H](C)NC(=O)[C@H](CCCCNC(=O)COCCOCCNC(=O)COCCOCCNC(=O)CC[C@H](NC(=O)CC[C@H](NC(=O)CCCCCCCCCCCCCCCCC(=O)O)C(=O)O)C(=O)O)NC(=O)[C@H](CCC(N)=O)NC(=O)[C@H](C)NC(=O)[C@@H](NC(=O)[C@H](CCCCN)NC(=O)[C@H](CC(=O)O)NC(=O)[C@H](CC(C)C)NC(=O)C(C)(C)NC(=O)[C@@H](NC(=O)[C@H](CO)NC(=O)[C@H](Cc1ccc(O)cc1)NC(=O)[C@H](CC(=O)O)NC(=O)[C@H](CO)NC(=O)[C@@H](NC(=O)[C@H](Cc1ccccc1)NC(=O)[C@@H](NC(=O)CNC(=O)[C@H](CCC(=O)O)NC(=O)C(C)(C)NC(=O)[C@@H](N)Cc1ccc(O)cc1)[C@@H](C)O)[C@@H](C)O)[C@@H](C)CC)[C@@H](C)CC)C(C)C)C(=O)N[C@@H](C)C(=O)NCC(=O)NCC(=O)N1CCC[C@H]1C(=O)N[C@@H](CO)C(=O)N[C@@H](CO)C(=O)NCC(=O)N[C@@H](C)C(=O)N1CCC[C@H]1C(=O)N1CCC[C@H]1C(=O)N1CCC[C@H]1C(=O)N[C@@H](CO)C(N)=O [Example 7] (H-Y[Aib]EGTFTSDYSI[Aib]LDKIAQK([AEEA-AEEA-γGlu-γGlu-C18 diacid])A[1Nal]VQWLIAGGPSSGAPPPS-NH2),Molar ratio of hGLP-1R/hGIP-R,human GLP-1R [1]; normalized by factor 4.53 from native GIP and GLP-1 binding,1.68
same,Absolute ratio of hGLP-1R/hGIP-R,human GLP-1R [1]; ratio of Ki values,7.6
same,Emax,human GLP-1R [2],97.2 ± 3.4%
same,EC50,mouse islets,11.3 nM
same,CL/F,[3],1.5 mL/h/kg
same,Cmax,[3],2900 ng/mL
same,AUC(0-inf),[3]; read-out: Mean AUC0-inf,136 µg·h/mL
same,half-life,[3]; read-out: Mean T1/2 (converted),31 h
same,Tmax,[3]; read-out: Mean Tmax,6 h
same,% max increase of insulin AUC,[4],278 +/− 26% and 335 +/− 35%
same,% Change from starting body weight,"[5]; Table 10, 10 nmol/kg",−15.08 ± 1.22 %
same,% Change from starting fat mass,"[5]; Table 10, 10 nmol/kg",−26.46 ± 2.31 %
same,% Change from starting body weight,"[5]; Table 10, 30 nmol/kg",−20.70 ± 1.95 %
same,% Change from starting fat mass,"[5]; Table 10, 30 nmol/kg",−43.49 ± 5.47 %
same,% Change from starting body weight,"[5]; Table 10, 100 nmol/kg",−24.36 ± 2.06 %
same,% Change from starting fat mass,"[5]; Table 10, 100 nmol/kg",−49.92 ± 3.40 %
same,Plasma Cholesterol,"[5]; Table 13, 10 nmol/kg",161.8 ± 6.2 mg/dL
same,Blood Glucose,"[5]; Table 13, 10 nmol/kg",113.6 ± 4.16 mg/dL
same,Plasma Cholesterol,"[5]; Table 13, 30 nmol/kg",153.6 ± 13.47 mg/dL
same,Blood Glucose,"[5]; Table 13, 30 nmol/kg",114.7 ± 4.70 mg/dL
same,Plasma Cholesterol,"[5]; Table 13, 100 nmol/kg",145.4 ± 9.48 mg/dL
same,Blood Glucose,"[5]; Table 13, 100 nmol/kg",114 ± 2.36 mg/dL
same,EC50,Human GCGR,> 1000 nM
same,Emax,human GIP-R,106 ± 3%
